Columns and labels:
[1] = system: animals damaged with 6-OHDA; assay: 6-OHDA Parkinson's model, vertical exploratory activity; assay type: in vivo, rats
[2] = system: animals damaged with 6-OHDA; assay: 6-OHDA Parkinson's model, cylinder test; assay type: in vivo, rats; conditions: 7 days after 6-OHDA damage
[3] = system: scopolamine cognitive deficit; assay: Scopolamine-induced dementia, T maze spontaneous alternation; assay type: in vivo, rats; conditions: 2, 4 and 8 mg/kg p.o., 1 hour before scopolamine 1 mg/kg i.p.
Procedure: FIG. 11. Effect of KM-34 on spatial memory. In the T labyrinth, KM-34 (2, 4 and 8 mg/k, p.o) was given 1 hour prior to scopolamine (1 mg/kg, i.p.). Data are expressed as mean ± SD (n=7, per group) of the percentage of spontaneous alternation. For statistical anal sis ANOVA and Tukey's multiple comparison test were performed. Different letters differ from each other for p<0.01. In in vivo models, KM-34 was administered orally (p.o) at a rate of 4 mL/kg body weight. Doses of 2, 4 and 8 mg/kg were evaluated as acute administration 90 minutes before the start of behavioral tests. For administration the compound was suspended in carboxymethylcellulose (CMC) 0.05%. Scopolamine bromide was dissolved in 0.9% saline solution and administered intraperitoneally as a single dose (1 mg/kg, 4 mL/kg body weight) 30 minutes prior to the initiation of the behavioral tests. The animals were randomly selected and divided into 5 experimental groups with different treatments (n=7, per group): control group (CMC and saline), vehicle group (CMC and scopolamine 1 mg/kg), KM-34 (KM-34 4 mg/kg and scopolamine 1 mg/kg) and (KM-34 8 mg/kg and scopolamine 1 mg/kg). […] The series of entries to each arm was recorded and the percentage of alternation was calculated as: (number of alternations performed/total of possible alternations)×100. […]

PC12 cells = assay: Cytoprotection against FeSO4/AA damage in PC12 cells (MTT); assay type: cell-based
Procedure: FIG. 8. Cytoprotective effect of KM-34 (0.001-10 μM) against damage induced by FeSO4 (5 mmol/L) and ascorbic acid (AA, 2 mmol/L) in cultures of PC12 cells. Viability 1% live cells) was determined by the MTT assay. Cells were seeded at a density of 5×10^5 cells/mL in a 96-well plate. The KM-34 was added simultaneously to the addition of the mixture of FeSO 4 and AA. The culture was then allowed to incubate at 37° C, […] and 5% CO 2 for 4 hours. After this time the supernatant was removed and the cells were incubated with 20 μg of MTT for a further 2 hours and the absorbance at 450 nm was measured with reference to 630 nm. The results are expressed as percentage of live cells relative to the control (undamaged cells, 100% live cells. *Represents significant differences (p<0.05) with respect to FeSO4/AA control.
The FeSO4/AA system is a strong catalyst for oxidative reactions in cells such as PC12 leading to their death (Hiroi et al., 2005; Núñez et al., 2011). […] At concentrations greater than 1 μM the % cell survival was greater than 90% (FIG. 8).

[4] = system: occlusion of the middle cerebral artery in rats; assay: Transient middle cerebral artery occlusion, neurological deficit score; assay type: in vivo; conditions: 0.5 and 1 mg/kg oral, 1 hour after reperfusion
Procedure: FIG. 13. Acute treatment with KM-34 reduced the volume of infarction edema and deficit in rat behavior after 90 min of middle cerebral artery occlusion (MACA) and 23 hours of reperfusion. The different doses of the compound were administered orally 1 hour after reperfusion. (A) Representative brain coronal sections (2 mm thick) of the sham and ischemic groups treated with vehicle or KM-34 (0.1, 0.5 or 1 mg/kg) and stained with 2,3,5-triphenyltetrazolium (TTC) 2%. The red regions correspond to undamaged tissue and white to ischemic regions. (B) Quantitative analysis of cortical, subcortical and total lesion size. (C) Neurological deficit. The bars represent the mean ± SEM (n=8). Different letters in (A) and * in (B): p<0.05, by ANOVA and post hoc of Newman-Keuls. Scale=10 mm. […]
Transient cerebral ischemia was performed by the OACM, using the intraluminal filament method. […] After 23 hours of reperfusion, the neurological deficit was evaluated and the animals sacrificed to determine the infarct volume and perform the behavioral evaluations.
Neurological deficit was assessed according to a six-point scale: 0=no observable neurological deficit; 1=no extension of the left front leg; 2=shifts in circles to the left if the animal is suspended by the tail; 3=spontaneous displacements in circles to the left; 4=no spontaneous motor activity with decreased level of consciousness; 5=death.

SMILES: CC1(C)OC(=O)C(=Cc2ccc(O)c(O)c2)C(=O)O1 [KM-34, 5-[(3,4-dihydroxyphenyl)methylidene]-2,2-dimethyl-1,3-dioxane-4,6-dione]
- Vertical exploratory behavior ([1]; 0.5 and 1 mg doses, vs damaged animals): did not show statistically significant differences
- Vertical exploratory behavior ([1]; maximum dose 2 mg/Kg): statistically significant differences with respect to damaged animals
- % asymmetry, cylinder test ([2]; 0.5 mg/kg): no statistically significant difference with respect to the damaged group without treatment
- % asymmetry, cylinder test ([2]; 2 mg/kg and 1 mg/kg): equal to the animals (healthy) animals
- Spatial memory, percentage of spontaneous alternation in T maze [3]: significantly (p<0.01) protected from spatial memory damage
- Concentration showing cytoprotective effects against FeSO4/AA (PC12 cells; FeSO4 5 mmol/L and AA 2 mmol/L, 4 hours): higher than 0.001 μM
- Cells surviving oxidizing conditions (PC12 cells; FeSO4/AA, concentrations between 0.01-10 μM): 90 out of 100 cells
- % cell survival (PC12 cells; FeSO4/AA, concentrations greater than 1 μM): greater than 90%
- Neurological deficit (neurological score) [4]: significantly improved (p<0.05) the neurological deficit

— patent US10722491B2, “Phenol compound and combination of same with a benzodiazepine fused to 1,4-dihydropyridine for treating diseases of the central nervous and vascular systems” (UNIVERSIDAD DE LA HABANA, priority 2016, dated 2020)
